From patent US7273848B2, “Apolipoprotein A-I agonists and their use to treat dyslipidemic disorders” (priority 1997, dated 2007)
Non-standard residues stand in square brackets, D forms with d. Residues, ends and D or L forms follow the SMILES beside them. Aib = CC(C)(N)C(=O)O

Tests used:
[1] = molecular target: T1, LCAT (purified from human plasma) (Homo sapiens, UniProt P04180); assay: LCAT activation assay; type: biochemical; conditions: LCAT activation as compared with native human ApoA-I (= 100%), equivalent masses
T1 construct: from tissue; host or cells: human plasma
T1 sequence (P04180 25-440): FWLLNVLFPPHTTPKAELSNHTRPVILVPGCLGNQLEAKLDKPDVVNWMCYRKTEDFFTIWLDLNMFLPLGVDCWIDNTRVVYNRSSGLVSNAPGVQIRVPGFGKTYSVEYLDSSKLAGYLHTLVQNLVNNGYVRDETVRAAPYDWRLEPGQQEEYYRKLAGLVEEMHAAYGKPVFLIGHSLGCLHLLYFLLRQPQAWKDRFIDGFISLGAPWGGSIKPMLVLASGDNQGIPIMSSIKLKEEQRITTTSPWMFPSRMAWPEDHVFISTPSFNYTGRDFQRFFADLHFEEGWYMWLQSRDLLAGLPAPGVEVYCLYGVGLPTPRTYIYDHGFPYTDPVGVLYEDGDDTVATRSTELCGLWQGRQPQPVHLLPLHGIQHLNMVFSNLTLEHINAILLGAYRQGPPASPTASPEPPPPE
How it was run: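 Activity was expressed as percentage conversion of radiolabelled cholesterol to cholesteryl ester, normalised to native ApoA-I as 100%. LCAT purified from human plasma was added to peptide-preincubated EPC or POPC/cholesterol (20:1) small unilamellar vesicles at pH 7.4. Specific activity is the peptide concentration reaching the conversion plateau at a fixed timepoint.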

[2] = Circular dichroism helicity determination; type: physicochemical; conditions: percent helicity; for He (%) TFE: 5 μM peptide, 90% vol TFE; for He (%) TFE / He (%) SUVs: 37° C.; for He (%) free: unbound peptide 5 μM in 5 mM phosphate buffer, pH 7.4, 37° C.; for He (%) SUVs: peptide-SUV complexes (20:1 EPC:Chol., Ri=30 and Ri=50); for He (%) mics: peptide-micelle complexes, Ri=100, 37° C.
How it was run: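 Far-UV CD (190–260 nm) at 37° C on 5 μM peptide in 5 mM phosphate pH 7.4, free, with EPC:Chol 20:1 SUVs (Ri 30 or 50), lysophosphatidylcholine micelles (Ri 100) or 90% TFE. Spectra converted to molar ellipticity per residue; helicity from 222 nm ellipticity or CONTIN fitting to reference spectra, ±5%.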

Row | SMILES | ACTIVITY (%) LCAT [1] [%] | He (%) TFE [2] [%] | He (%) free [2] [%] | He (%) SUVs [2] [%] | He (%) mics [2] [%]
1 | CC(C)C[C@H](NC(=O)[C@H](C)NC(=O)[C@H](CCC(=O)O)NC(=O)[C@H](CC(C)C)NC(=O)C(C)(C)NC(=O)[C@H](CCC(=O)O)NC(=O)[C@H](CC(N)=O)NC(=O)[C@H](CC(C)C)NC(=O)[C@H](CCCCN)NC(=O)[C@H](CCC(=O)O)NC(=O)[C@H](CCCNC(=N)N)NC(=O)[C@H](Cc1ccccc1)NC(=O)[C@H](CCC(=O)O)NC(=O)[C@H](CC(=O)O)NC(=O)[C@H](CC(C)C)NC(=O)[C@@H](NC(=O)[C@@H]1CCCN1)C(C)C)C(=O)N[C@@H](CCCCN)C(=O)N[C@@H](CCC(N)=O)C(=O)N[C@@H](CCCCN)C(=O)N[C@@H](CC(C)C)C(=O)N[C@@H](CCCCN)C(=O)O [compound 45, PVLDEFREKLNEXLEALKQKLK] (H-PVLDEFREKLNE[Aib]LEALKQKLK-OH) | 24 | 86 | 24 | 25 | 84
2 | CC(C)C[C@H](NC(=O)[C@H](C)NC(=O)[C@H](CCC(=O)O)NC(=O)[C@H](CC(C)C)NC(=O)C(C)(C)NC(=O)[C@H](CCC(=O)O)NC(=O)[C@H](CC(N)=O)NC(=O)[C@H](CC(C)C)NC(=O)[C@H](CCCCN)NC(=O)[C@H](CCC(=O)O)NC(=O)[C@H](CCCNC(=N)N)NC(=O)[C@H](Cc1ccccc1)NC(=O)[C@H](CC(C)C)NC(=O)[C@H](CC(=O)O)NC(=O)[C@H](CC(C)C)NC(=O)[C@@H](NC(=O)[C@@H]1CCCN1)C(C)C)C(=O)N[C@@H](CCCCN)C(=O)N[C@@H](CCC(N)=O)C(=O)N[C@@H](CCCCN)C(=O)N[C@@H](CC(C)C)C(=O)N[C@@H](CCCCN)C(=O)O [compound 46, PVLDLFREKLNEXLEALKQKLK] (H-PVLDLFREKLNE[Aib]LEALKQKLK-OH) | 23 | 85 | 30 | 58 | 86
3 | CC(C)C[C@H](NC(=O)[C@H](C)NC(=O)[C@H](CCC(=O)O)NC(=O)[C@H](CC(C)C)NC(=O)C(C)(C)NC(=O)[C@H](CCC(=O)O)NC(=O)[C@H](Cc1c[nH]c2ccccc12)NC(=O)[C@H](CC(C)C)NC(=O)[C@H](CC(C)C)NC(=O)[C@H](CCC(=O)O)NC(=O)[C@H](CCCNC(=N)N)NC(=O)[C@H](Cc1ccccc1)NC(=O)[C@H](CC(C)C)NC(=O)[C@H](CC(=O)O)NC(=O)[C@H](CC(C)C)NC(=O)[C@@H](NC(=O)[C@@H]1CCCN1)C(C)C)C(=O)N[C@@H](CCCCN)C(=O)N[C@@H](CCC(N)=O)C(=O)N[C@@H](CCCCN)C(=O)N[C@@H](CC(C)C)C(=O)N[C@@H](CCCCN)C(=O)O [compound 50, PVLDLFRELLWEXLEALKQKLK] (H-PVLDLFRELLWE[Aib]LEALKQKLK-OH) | 21 | 76 | 68 | 89 | 84
4 | CC(C)C[C@H](NC(=O)[C@H](C)NC(=O)[C@H](CCC(=O)O)NC(=O)[C@H](CC(C)C)NC(=O)C(C)(C)NC(=O)[C@H](CCC(=O)O)NC(=O)[C@H](CC(N)=O)NC(=O)[C@H](CC(C)C)NC(=O)[C@H](CC(C)C)NC(=O)[C@H](CCC(=O)O)NC(=O)[C@H](Cc1c[nH]c2ccccc12)NC(=O)[C@H](Cc1ccccc1)NC(=O)[C@H](CC(C)C)NC(=O)[C@H](CC(=O)O)NC(=O)[C@H](CC(C)C)NC(=O)[C@@H](NC(=O)[C@@H]1CCCN1)C(C)C)C(=O)N[C@@H](CCCCN)C(=O)N[C@@H](CCC(N)=O)C(=O)N[C@@H](CCCCN)C(=O)N[C@@H](CC(C)C)C(=O)N[C@@H](CCCCN)C(=O)O [compound 51, PVLDLFWELLNEXLEALKQKLK] (H-PVLDLFWELLNE[Aib]LEALKQKLK-OH) | 20 | 73 | 63 | 81 | 82
5 | CC(C)C[C@H](NC(=O)[C@H](C)NC(=O)[C@H](CCC(=O)O)NC(=O)[C@H](CC(C)C)NC(=O)C(C)(C)NC(=O)[C@H](CCC(=O)O)NC(=O)[C@H](CC(N)=O)NC(=O)[C@H](CC(C)C)NC(=O)[C@H](CCCCN)NC(=O)[C@H](CCC(=O)O)NC(=O)[C@H](CCCNC(=N)N)NC(=O)[C@H](Cc1c[nH]c2ccccc12)NC(=O)[C@H](CCC(=O)O)NC(=O)[C@H](CC(=O)O)NC(=O)[C@H](CC(C)C)NC(=O)[C@@H](NC(=O)[C@@H]1CCCN1)C(C)C)C(=O)N[C@@H](CCCCN)C(=O)N[C@@H](CCC(N)=O)C(=O)N[C@@H](CCCCN)C(=O)N[C@@H](CC(C)C)C(=O)N[C@@H](CCCCN)C(=O)O [compound 62, PVLDEWREKLNEXLEALKQKLK] (H-PVLDEWREKLNE[Aib]LEALKQKLK-OH) | 16 |  | 15 | 43 | 85

Next, values leading:

Row | ACTIVITY (%) LCAT [1] [%] | He (%) TFE [2] [%] | He (%) free [2] [%] | He (%) SUVs [2] [%] | He (%) mics [2] [%] | SMILES
6 | 12 | 66 | 27 | 33 | 78 | CC(C)C[C@H](NC(=O)[C@H](C)NC(=O)[C@H](CCC(=O)O)NC(=O)[C@H](CC(C)C)NC(=O)C(C)(C)NC(=O)[C@H](CCC(=O)O)NC(=O)[C@H](Cc1ccc(O)cc1)NC(=O)[C@H](CC(C)C)NC(=O)[C@H](CC(C)C)NC(=O)[C@H](CCC(=O)O)NC(=O)[C@H](CCCNC(=N)N)NC(=O)[C@H](Cc1ccccc1)NC(=O)[C@H](CCC(=O)O)NC(=O)[C@H](CC(=O)O)NC(=O)[C@H](CC(C)C)NC(=O)[C@@H](NC(=O)[C@@H]1CCCN1)C(C)C)C(=O)N[C@@H](CCCCN)C(=O)N[C@@H](CCC(N)=O)C(=O)N[C@@H](CCCCN)C(=O)N[C@@H](CC(C)C)C(=O)N[C@@H](CCCCN)C(=O)O [compound 70, PVLDEFRELLYEXLEALKQKLK] (H-PVLDEFRELLYE[Aib]LEALKQKLK-OH)
7 | 9 | 66 | 41 |  | 88 | CC(C)C[C@H](NC(=O)[C@H](C)NC(=O)[C@H](CCC(=O)O)NC(=O)[C@H](CC(C)C)NC(=O)C(C)(C)NC(=O)[C@H](CCC(=O)O)NC(=O)[C@H](Cc1ccccc1)NC(=O)[C@H](CC(C)C)NC(=O)[C@H](CC(C)C)NC(=O)[C@H](CCC(=O)O)NC(=O)[C@H](CCCNC(=N)N)NC(=O)[C@H](Cc1ccccc1)NC(=O)[C@H](CCC(=O)O)NC(=O)[C@H](CC(=O)O)NC(=O)[C@H](CC(C)C)NC(=O)[C@@H](NC(=O)[C@@H]1CCCN1)C(C)C)C(=O)N[C@@H](CCCCN)C(=O)N[C@@H](CCC(N)=O)C(=O)N[C@@H](CCCCN)C(=O)N[C@@H](CC(C)C)C(=O)N[C@@H](CCCCN)C(=O)O [compound 76, PVLDEFRELLFEXLEALKQKLK] (H-PVLDEFRELLFE[Aib]LEALKQKLK-OH)
8 | 7 | 100 | 100 |  | 100 | CC(C)C[C@@H](NC(=O)[C@@H](C)NC(=O)[C@@H](CCC(=O)O)NC(=O)[C@@H](CC(C)C)NC(=O)[C@@H](CC(C)C)NC(=O)[C@@H](CCC(=O)O)NC(=O)[C@@H](CCC(N)=O)NC(=O)[C@@H](CC(C)C)NC(=O)[C@@H](CC(C)C)NC(=O)[C@@H](CCC(=O)O)NC(=O)[C@@H](CCCCN)NC(=O)[C@@H](CC(C)C)NC(=O)[C@@H](CC(C)C)NC(=O)[C@@H](CCC(=O)O)NC(=O)[C@@H](CC(C)C)NC(=O)[C@@H](CC(C)C)NC(=O)[C@H]1CCCN1)C(=O)N[C@H](CCCCN)C(=O)N[C@H](CCC(N)=O)C(=O)N[C@H](CCCCN)C(=O)N[C@H](CC(C)C)C(=O)N[C@H](CCCCN)C(=O)O [compound 87, pllellkellqellealkqklk] (H-[dP][dL][dL][dE][dL][dL][dK][dE][dL][dL][dQ][dE][dL][dL][dE][dA][dL][dK][dQ][dK][dL][dK]-OH)
9 | 6 | 100 | 43 |  | 100 | CC(C)C[C@H](NC(=O)[C@H](C)NC(=O)[C@H](CCC(=O)O)NC(=O)[C@H](CC(C)C)NC(=O)C(C)(C)NC(=O)[C@H](CCC(=O)O)NC(=O)[C@H](CC(N)=O)NC(=O)[C@H](CC(C)C)NC(=O)[C@H](CC(C)C)NC(=O)[C@H](CCC(=O)O)NC(=O)[C@H](CCCNC(=N)N)NC(=O)[C@H](Cc1ccccc1)NC(=O)[C@H](CCC(=O)O)NC(=O)[C@H](CC(=O)O)NC(=O)[C@H](CC(C)C)NC(=O)[C@@H](NC(=O)[C@@H]1CCCN1)C(C)C)C(=O)N[C@@H](CCCCN)C(=O)N[C@@H](CCC(N)=O)C(=O)N[C@@H](CCCCN)C(=O)N[C@@H](CC(C)C)C(=O)N[C@@H](CCCCN)C(=O)O [compound 91, PVLDEFRELLNEXLEALKQKLK] (H-PVLDEFRELLNE[Aib]LEALKQKLK-OH)
